Tests used:
Assay type in all cases: cell-based, human
[1] = test system: hPSC-CMs; test: Flow cytometry of differentiated cells (cTnT, MLC2v)
Protocol: Flow cytometry for internal antigens was done on dissociated cells using the same blocking, washing, secondary antibodies, and buffers as internal antigen immunofluorescence described above using mlc2v (proteintech, 1:100) and cardiac troponin T (Thermo Fisher Scientific, 1:200) in the 19-9-11 iPS cell line. Between washes and staining steps, dissociated cells were pelleted at 1,100 g for 5 minutes. Blocking and antibody staining steps were done in a volume of 100 μL, and washing steps in 1 mL in Eppendorf™ tubes.
Flow cytometry for live cell surface antigens was done on dissociated cells of the 19-9-11 iPS cell line with Thy1 biotin (1:200 Biolegend, with Life Technologies streptavidin direct conjugate at 1:1000) and SIRPα (1:200, Biolegend) in K20 and then analyzed at the UWCCC Flow Cytometry Laboratory using a BD LSRII Fortessa flow cytometer. For progenitor flow experiments, cells were dissociated as above for progenitor dissociation, centrifuged at 200×g, subjected to FACS to concentrate cells, and resuspended in 100 μL, of K2 media+rockI/Jag1 PE, BD Biosciences (1:20); Notch2 APC R&D Biosystems (1:10) and analyzed on either a BD FACSariaII cell sorter or BD LSRII Fortessa flow cytometer.

[2] = test system: NFκB signaling; test: Western blot of NFκB and phosphorylated IκB in day 5 cardiac progenitors; conditions: pI:C days 3-5
Protocol: Frozen cell pellets from cardiac progenitors in the 19-9-11 iPS cell line were thawed and protein isolated in EBC lysis buffer (Boston BioProducts) supplemented with complete protease inhibitor tablets (Roche) rocking on ice for 1 hour to cause cell lysis. After the observation of lysis material and cell debris, protein/debris mixtures were centrifuged at >18,000×g for 15 minutes at 4° C. The protein-containing supernatant was quantified in a plate reader using the Biorad DC protein assay. 40 to 80 μg of protein was loaded in 6× βmercaptoethanol-containing Laemmli sample buffer (Biorad), boiled for 10 minutes at 95° C., then run on a 4-20% Criterion™ TGX™ gel (Biorad) for 30 minutes at 200 V. Proteins were then transferred at 10 V overnight at 4° C. to Immobilon-FL™ PVDF in a Criterion™ plate transfer cassette in Tris-Glycine transfer buffer (Biorad) with 20% methanol. Membranes were blocked for 1 hour at RT in Licor PBS blocking buffer, and then incubated with primary antibodies overnight 4° C. Antibodies were used at a dilution of 1:1000 (goat anti-Jag1, R&D systems) or 1:3000 (GAPDH, sigma) in Licor PBS blocking buffer. […] Licor secondary donkey anti-rabbit or anti-mouse antibodies were used at 1:15,000 for 1 hour at RT in Licor PBS blocking buffer, and after washing membranes were analyzed in a Licor Odyssey detection system. […]

[3] = test system: cTnT isoforms; test: Top-down mass spectrometry of cTnT isoforms (adult to fetal AUC ratio)
Protocol: Freshly isolated CMs from the H9-cTnT-GFP (FIG. 1) or 19-9-11 (FIG. 2) hPSC cell lines were washed with Ca^2+-free DPBS and centrifuged at 1,100 g for 5 minutes (min) and the wash solvent was removed. The cells were first homogenized in 50 μl HEPES solution (25 mM HEPES, pH 7.4, 2.5 mM EDTA, 100 mM NaF, 1 mM DTT, 10 mM L-methionine, 1 mM PMSF, 1 mM Na3VO4, protease inhibitor (Abcam) and phosphatase inhibitors). The homogenates were centrifuged at 17,000 g for 20 min and the HEPES extract containing predominately cytosolic proteins was collected. The remaining pellets were homogenized in 40 μl trifluoroacetic acid (TFA) solution (1% TFA, 5 mM tris(2-carboxyethyl)phosphine, 5 mM L-methionine) and centrifuged at 17,000 g for 20 min. The TFA extract containing predominantly the sarcomeric proteins was collected. Bradford protein assays were performed to determine the protein concentration. The sarcomeric protein-enriched extracts were diluted to 100 ng/μl for Liquid chromatography (LC)-MS analysis.
500 ng of each sarcomeric protein-enriched extract was injected to a home-packed reverse phase chromatography (RPC) column (PLRP-S, 10 μm particle size, 1000 A pore size, 500 μm inner diameter, 25 cm long), and the proteins were separated with a gradient of 5-95% mobile phase B (0.1% formic acid in 50:50 acetonitrile:ethanol) (mobile phase A: 0.1% formic acid in H2O) at a constant flowrate of 12 μl/min. The eluting proteins were analyzed by a high-resolution quadrupole-time of flight (q-TOF) mass spectrometer (Impact II, Bruker Daltonics) via electrospray ionization. The mass spectra were collected at a scan rate of 0.5 Hz for all samples being analyzed. Analyses of top-down mass spectra were performed using the vender-specific software DataAnalysis 3.2 (Bruker Daltonics).
Quantification of the sarcomeric protein isoforms was performed as previously described. […] The area under curve (AUC) of the EIC of a specific protein isoform represents the abundance of the selected protein isoform. […] Relative quantification of protein isoform expression was measured by the ratio of the AUCs.

[4] = test system: hPSC-CMs; test: Transmission electron microscopy of sarcomeres; conditions: day 30 hPSC-CMs from pI:C-treated progenitors
Excerpt: Differentiated H9-cTnT-GFP line hPSC-CMs at day 30 were washed twice with sodium phosphate buffer and fixed and maintained in sodium phosphate buffer with 4% paraformaldehyde (PFA) until pelleting and processing for TEM as previously described (Raval et al., 2015).

[5] = test system: hPSC-derived cardiac progenitors and hPSC-CMs; test: RT-qPCR gene expression in progenitors or cardiomyocytes
Protocol: Frozen cell pellets from progenitors or cardiomyocytes in the 19-9-11 iPS cell line were thawed and RNA isolated using RNeasy spin columns with on-column DNase treatment according to the manufacturer's instructions (Qiagen). 500 ng of isolated RNA was used as template for reverse transcription using Biorad iScript RT supermix according to the manufacturer's instructions. 2.5 ng of derived cDNA was then used as template in qPCR with Taqman® primers bearing FAM-MGB dyes for genes of interest in a 20 μL reaction with Taqman® universal PCR supermix and the manufacturer's recommended cycling conditions (Thermo Fisher Scientific).

[6] = primed vs untreated cardiac progenitors, qPCR

polyinosinic-polycytidylic acid [pI:C] was tested, and the “purity of cardiomyocytes marked by cardiac troponin T (cTnT) expression” value ([1]; comparable for pI:C-treated and untreated progenitors, hES and hiPS cell lines) was 80-95%, the “percentage of mlc2v+/cTnT+ hPSC-CMs” value ([1]; day 30) was “markedly increased” and the “phosphorylated IκB (NFκB pathway activation)” value [2] was “showed expression of phosphorylated (inactivated) inhibitor IκB”. The “ratio of adult to fetal cTnT isoforms” value ([3]; day 30 cardiomyocytes) was “increased the ratio of adult to fetal isoforms”, the “adult to fetal cTnT isoform ratio and relative difference treated vs untreated” value ([3]; prolonged culture to day 122) was “increased dramatically” and the sarcomere ultrastructure [4] was “longer, more regular and compact sarcomeres that contained I-bands”. For the same substance, the myofilament gene expression ([5]; day 9 cells, treated vs untreated progenitors) was “increased expression of all myofilament genes studied”, the “expression of cardiomyocyte maturation genes such as cTnI and αMHC” value ([5]; day 20 pPSC-CM, pI:C vs untreated) was “increased the expression levels” and the “expression of cardiac fibroblast genes (Thy1, MMP1, Collagen 1a, WT1)” value ([5]; pI:C treatment vs untreated) was “downregulated”. For the same substance, the “levels of type I HDAC1-3” value [5, 6] was “unchanged to unregulated levels” and the “levels of type II histone deacetylases (HDAC4-7)” value [5, 6] was “universally lower levels”.
